Assays:
AsPC-1 cells = assay: AsPC-1 cell proliferation assay (CellTiter Glo); type: cell-based; conditions: 6 days
How it was run: (§1)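 AsPC-1 cells: for degradation, grown to ~90% confluency, treated 24 h with 1:3 compound series ([…] to 1.5 nM), then fixed and immunostained for KRAS G12D and β-actin, read by infrared fluorescence, DC50 fitted. Proliferation: 3,500 cells/well, 6-day treatment, CellTiter Glo luminescence, IC50 fitted.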

KRAS (G12D) = target: T1, KRAS (G12D) (Homo sapiens, UniProt P01116, G12D); assay: KRAS (G12D) cellular degradation assay in AsPC-1 cells; type: cell-based; conditions: 24 hours, antibody fluorescence (Odyssey CLX), DC50 half-maximal degradation concentration
T1 construct: in-cell western with KRAS G12D antibody after 24 h
How it was run: as §1

T1 sequence (P01116 1-188 isoform P01116-2 G12D): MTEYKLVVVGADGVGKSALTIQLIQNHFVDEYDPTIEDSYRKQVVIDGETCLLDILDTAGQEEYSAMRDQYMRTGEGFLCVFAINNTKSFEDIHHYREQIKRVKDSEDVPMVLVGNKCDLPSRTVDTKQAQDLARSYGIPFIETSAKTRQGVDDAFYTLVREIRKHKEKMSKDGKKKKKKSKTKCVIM

Row | IC50 (AsPC-1 cells; Homo sapiens, ASPC1, 144 h) | DC50 (KRAS (G12D)) | IC50 (AsPC-1 cells) | Structure (SMILES)
1 | < 10 nM | < 10 nM | – | Cc1ncsc1-c1ccc([C@H](CO)NC(=O)[C@@H]2C[C@@H](O)CN2C(=O)[C@H](C(C)C)n2cc(-c3ccc(COc4c(-c5c(C)c(F)cc6[nH]ncc56)c(C5CC5)cc5c(N6C[C@@H]7C[C@H]6CN7)nc(OC6CCC7(CC6)COC7)nc45)cc3)nn2)cc1 [Example 63, (2S,4R)-1-((2S)-2-(4-(4-(((2-((2-oxaspiro[3.5]nonan-7-yl)oxy)-4-((1S,4S)-2,5-diazabicyclo[2.2.1]heptan-2-yl)-6-cyclopropyl-7-(6-fluoro-5-methyl-1H-indazol-4-yl)quinazolin-8-yl)oxy)methyl)phenyl)-1H-1,2,3-triazol-1-yl)-3-methylbutanoyl)-4-hydroxy-N—((R)-2-hydroxy-1-(4-(4-methylthiazol-5-yl)phenyl)ethyl)pyrrolidine-2-carboxamide]
2 | 10 to 100 nM | 10 to 100 nM | – | CO[C@@H](C)COc1nc(N2C[C@@H]3C[C@H]2CN3)c2cc(C3CC3)c(-c3c(C)c(F)cc4[nH]ncc34)c(OCc3ccc(-c4cn([C@H](C(=O)N5C[C@H](O)C[C@H]5C(=O)N[C@H](C#Cc5ccc(F)cc5F)CO)C(C)C)nn4)cc3)c2n1 [Example 40, (2S,4R)-1-((2S)-2-(4-(4-(((4-((1S,4S)-2,5-diazabicyclo[2.2.1]heptan-2-yl)-6-cyclopropyl-7-(6-fluoro-5-methyl-1H-indazol-4-yl)-2-((S)-2-methoxypropoxy)quinazolin-8-yl)oxy)methyl)phenyl)-1H-1,2,3-triazol-1-yl)-3-methylbutanoyl)-N—((R)-4-(2,4-difluorophenyl)-1-hydroxybut-3-yn-2-yl)-4-hydroxypyrrolidine-2-carboxamide]
3 | < 10 nM | < 10 nM | – | CO[C@@H](C)COc1nc(N2C[C@@H]3C[C@H]2CN3)c2cc(C3CC3)c(-c3c(C)c(F)cc4[nH]ncc34)c(OCc3ccc(-c4cn([C@H](C(=O)N5C[C@H](O)C[C@H]5C(=O)N[C@H](C#Cc5cccc(F)c5)CO)C(C)C)nn4)cc3)c2n1 [Example 77, (2S,4R)-1-((2S)-2-(4-(4-(((4-((1S,4S)-2,5-diazabicyclo[2.2.1]heptan-2-yl)-6-cyclopropyl-7-(6-fluoro-5-methyl-1H-indazol-4-yl)-2-((S)-2-methoxypropoxy)quinazolin-8-yl)oxy)methyl)phenyl)-1H-1,2,3-triazol-1-yl)-3-methylbutanoyl)-N—((R)-4-(3-fluorophenyl)-1-hydroxybut-3-yn-2-yl)-4-hydroxypyrrolidine-2-carboxamide]
4 | < 10 nM | < 10 nM | – | CCn1nccc1-c1ccc([C@H](CO)NC(=O)[C@@H]2C[C@@H](O)CN2C(=O)[C@H](C(C)C)n2cc(-c3ccc(COc4c(-c5c(C)c(F)cc6[nH]ncc56)c(C5CC5)cc5c(N6C[C@@H]7C[C@H]6CN7)nc(OC6CCN(S(C)(=O)=O)CC6)nc45)cc3)nn2)cc1 [Example 38, (2S,4R)-1-((2S)-2-(4-(4-(((4-((1S,4S)-2,5-diazabicyclo[2.2.1]heptan-2-yl)-6-cyclopropyl-7-(6-fluoro-5-methyl-1H-indazol-4-yl)-2-((1-(methylsulfonyl)piperidin-4-yl)oxy)quinazolin-8-yl)oxy)methyl)phenyl)-1H-1,2,3-triazol-1-yl)-3-methylbutanoyl)-N—((R)-1-(4-(1-ethyl-1H-pyrazol-5-yl)phenyl)-2-hydroxyethyl)-4-hydroxypyrrolidine-2-carboxamide]
5 | < 10 nM | < 10 nM | – | CCn1nccc1-c1ccc([C@@H](NC(=O)[C@@H]2C[C@@H](O)CN2C(=O)[C@H](C(C)C)n2cc(-c3ccc(COc4c(-c5c(C)c(F)cc6[nH]ncc56)c(C5CC5)cc5c(N6C[C@@H]7C[C@H]6CN7)nc(OC[C@H](C)OC)nc45)cc3)nn2)[C@@H](C)O)cc1 [Example 73, (2S,4R)-1-((2S)-2-(4-(4-(((4-((1S,4S)-2,5-diazabicyclo[2.2.1]heptan-2-yl)-6-cyclopropyl-7-(6-fluoro-5-methyl-1H-indazol-4-yl)-2-((S)-2-methoxypropoxy)quinazolin-8-yl)oxy)methyl)phenyl)-1H-1,2,3-triazol-1-yl)-3-methylbutanoyl)-N-((1R,2R)-1-(4-(1-ethyl-1H-pyrazol-5-yl)phenyl)-2-hydroxypropyl)-4-hydroxypyrrolidine-2-carboxamide]
6 | < 10 nM | < 10 nM | – | CCn1nccc1-c1ccc([C@H](CO)NC(=O)[C@@H]2C[C@@H](O)CN2C(=O)[C@H](C(C)C)n2cc(-c3ccc(COc4c(-c5c(C)c(F)cc6[nH]ncc56)c(C5CC5)cc5c(N6C[C@@H]7C[C@H]6CN7)nc(OC[C@H](C)OC)nc45)cc3)nn2)c2c1CC2 [Example 152, (2S,4R)-1-((2S)-2-(4-(4-(((4-((1S,4S)-2,5-diazabicyclo[2.2.1]heptan-2-yl)-6-cyclopropyl-7-(6-fluoro-5-methyl-1H-indazol-4-yl)-2-((S)-2-methoxypropoxy)quinazolin-8-yl)oxy)methyl)phenyl)-1H-1,2,3-triazol-1-yl)-3-methylbutanoyl)-N—((R)-1-(5-(1-ethyl-1H-pyrazol-5-yl)bicyclo[4.2.0]octa-1(6),2,4-trien-2-yl)-2-hydroxyethyl)-4-hydroxypyrrolidine-2-carboxamide]
7 | < 10 nM | < 10 nM | – | CCn1nccc1-c1ccc([C@H](CO)NC(=O)[C@@H]2C[C@@H](O)CN2C(=O)[C@H](C(C)C)n2cc(-c3ccc(COc4c(-c5c(C)c(F)cc6[nH]ncc56)c(C5CC5)cc5c(N6C[C@@H]7C[C@H]6CN7)nc(OCC6COC7OCCC67)nc45)cc3)nn2)cc1 (stereo partly drawn) [Example 51, (2S,4R)-1-((2S)-2-(4-(4-(((4-((1S,4S)-2,5-diazabicyclo[2.2.1]heptan-2-yl)-6-cyclopropyl-7-(6-fluoro-5-methyl-1H-indazol-4-yl)-2-((hexahydrofuro[2,3-b]furan-3-yl)methoxy)quinazolin-8-yl)oxy)methyl)phenyl)-1H-1,2,3-triazol-1-yl)-3-methylbutanoyl)-N—((R)-1-(4-(1-ethyl-1H-pyrazol-5-yl)phenyl)-2-hydroxyethyl)-4-hydroxypyrrolidine-2-carboxamide]
8 | – | < 10 nM | < 10 nM | CO[C@@H](C)COc1nc(N2C[C@H]3C[C@@H]2CN3)c2cc(C3CC3)c(-c3c(C)c(F)cc4[nH]ncc34)c(OCc3ccc(-c4cn([C@H](C(=O)N5C[C@H](O)C[C@H]5C(=O)N[C@@H](CO)c5ccc(-c6scnc6C)cc5)C(C)C)nn4)cc3)c2n1 (single isomer, unassigned) [Example 2A]
9 | < 10 nM | < 10 nM | – | CCn1nccc1-c1ccc([C@@H](NC(=O)[C@@H]2C[C@@H](O)CN2C(=O)[C@H](C(C)C)n2cc(-c3ccc(COc4c(-c5c(C)c(F)cc6[nH]ncc56)c(C5CC5)cc5c(N6CCNCC[C@H]6C)nc(OC[C@H](C)OC)nc45)cc3)nn2)[C@H](C)O)cc1 [Example 201, (2S,4R)-1-((2S)-2-(4-(4-(((6-cyclopropyl-7-(6-fluoro-5-methyl-1H-indazol-4-yl)-2-((S)-2-methoxypropoxy)-4-((R)-7-methyl-1,4-diazepan-1-yl)quinazolin-8-yl)oxy)methyl)phenyl)-1H-1,2,3-triazol-1-yl)-3-methylbutanoyl)-N-((1R,2S)-1-(4-(1-ethyl-1H-pyrazol-5-yl)phenyl)-2-hydroxypropyl)-4-hydroxypyrrolidine-2-carboxamide]

Row | Structure (SMILES) | IC50 (AsPC-1 cells; Homo sapiens, ASPC1, 144 h) | DC50 (KRAS (G12D)) | IC50 (AsPC-1 cells)
10 | CCn1nccc1-c1ccc([C@@H](NC(=O)[C@@H]2C[C@@H](O)CN2C(=O)[C@H](C(C)C)n2cc(-c3ccc(COc4c(-c5c(C)c(F)cc6[nH]ncc56)c(C5CC5)cc5c(N6C[C@@H]7C[C@H]6CN7)nc(O[C@H]6C[C@H](OC)C6)nc45)cc3)nn2)[C@H](C)O)c2c1CC2 [Example 147, (2S,4R)-1-((2S)-2-(4-(4-(((4-((1S,4S)-2,5-diazabicyclo[2.2.1]heptan-2-yl)-6-cyclopropyl-7-(6-fluoro-5-methyl-1H-indazol-4-yl)-2-((1r,3S)-3-methoxycyclobutoxy)quinazolin-8-yl)oxy)methyl)phenyl)-1H-1,2,3-triazol-1-yl)-3-methylbutanoyl)-N-((1R,2S)-1-(5-(1-ethyl-1H-pyrazol-5-yl)bicyclo[4.2.0]octa-1(6),2,4-trien-2-yl)-2-hydroxypropyl)-4-hydroxypyrrolidine-2-carboxamide] | < 10 nM | < 10 nM | –
11 | CCn1nccc1-c1ccc([C@H](CO)NC(=O)[C@@H]2C[C@@H](O)CN2C(=O)[C@H](C(C)C)n2cc(-c3ccc(COc4c(-c5c(C)c(F)cc6[nH]ncc56)c(C5CC5)cc5c(N(C)[C@H]6CCNC6)nc(O[C@H]6C[C@H](OC)C6)nc45)cc3)nn2)cc1 [Example 165, (2S,4R)-1-((2S)-2-(4-(4-(((6-cyclopropyl-7-(6-fluoro-5-methyl-1H-indazol-4-yl)-2-((1r,3S)-3-methoxycyclobutoxy)-4-(methyl((S)-pyrrolidin-3-yl)amino)quinazolin-8-yl)oxy)methyl)phenyl)-1H-1,2,3-triazol-1-yl)-3-methylbutanoyl)-N—((R)-1-(4-(1-ethyl-1H-pyrazol-5-yl)phenyl)-2-hydroxyethyl)-4-hydroxypyrrolidine-2-carboxamide] | < 10 nM | < 10 nM | –
12 | CCn1nccc1-c1ccc([C@@H](NC(=O)[C@@H]2C[C@@H](O)CN2C(=O)[C@H](C(C)C)n2cc(-c3ccc(COc4c(-c5c(C)c(F)cc6[nH]ncc56)c(C5CC5)cc5c(N6C[C@@H]7C[C@H]6CN7)nc(O[C@H]6C[C@H](OC)C6)nc45)cc3)nn2)[C@H](C)O)c(F)c1 [Example 198, (2S,4R)-1-((2S)-2-(4-(4-(((4-((1S,4S)-2,5-diazabicyclo[2.2.1]heptan-2-yl)-6-cyclopropyl-7-(6-fluoro-5-methyl-1H-indazol-4-yl)-2-((1r,3S)-3-methoxycyclobutoxy)quinazolin-8-yl)oxy)methyl)phenyl)-1H-1,2,3-triazol-1-yl)-3-methylbutanoyl)-N-((1R,2S)-1-(4-(1-ethyl-1H-pyrazol-5-yl)-2-fluorophenyl)-2-hydroxypropyl)-4-hydroxypyrrolidine-2-carboxamide] | < 10 nM | < 10 nM | –
